Reference: patent US20260240869A1, “ANTIPSEUDOMONAL FUSIDIC ACID COMPOUNDS” (priority 2022, published 2026)
Converted amounts (≈) assume the structure as drawn. Like-named read-outs stand apart in the source and are kept apart here.

Columns and labels:
Format in all cases: cell-based, Pseudomonas aeruginosa
P. aeruginosa PA14 = experiment: MIC, P. aeruginosa PA14; settings: Pseudomonas aeruginosa; Reference strain PA14 (Table 11); read-out: MIC
Method: (§1) Antimicrobial Susceptibility Tests. Susceptibility testing was performed in biological triplicate, using the microdilution broth method as outlined by the Clinical and Laboratory Standards Institute. Bacteria were cultured with cation-adjusted Meuller-Hinton broth (Sigma-Aldrich; catalogue number: 90922) or Luria-Bertani (LB) broth (Lennox) in round-bottom 96-well plates (Corning; catalogue number: 3788).

P. aeruginosa PAO1 [1] = experiment: DiSC3 (5) inner membrane depolarization assay
[2] = system: FA resistance mutants of P. aeruginosa PAO1 A6; experiment: MIC in FA-resistant mutants; settings: mutants generated in PAO1 A6
Method: as §1
Selection ofresistant mutants. Resistant mutants were selected using the large inoculum method. […] Colonies were visible after incubating at 37° C. for 72 h.

P. aeruginosa PAO1 [3] = experiment: MIC, CLSI broth microdilution, P. aeruginosa PAO1; settings: for MIC: Pseudomonas aeruginosa
Outline: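 Growth medium was cation-adjusted Mueller-Hinton or Lennox LB broth. MICs came from CLSI-style broth microdilution done in three biological replicates.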

[4] = system: clinical isolates of P. aeruginosa; experiment: MIC against panel of clinical isolates of P. aeruginosa; settings: for MIC: Pseudomonas aeruginosa, read-out: MIC
Method: as §1

What does the source list for `CC(=O)O[C@H]1C[C@@]2(C)[C@@H](C[C@@H](O)[C@H]3[C@@]4(C)CC[C@@H](O)[C@@H](C)[C@@H]4CC[C@@]32C)/C1=C(\CCC=C(C)C)C(=O)O` [FA, Fusidic acid]?
MIC (P. aeruginosa PA14): > 1020 µg/mL; inner membrane depolarization (DiSC3 (5) fluorescence) (P. aeruginosa PAO1 [1]): did not impact membrane polarization; MIC fold change in FA-resistant strains [2]: 32-128 ×; MIC P. aeruginosa PAO1, CAMH (P. aeruginosa PAO1 [3]; CAMH (Table 10)): 1020 µg/mL (≈ 1980 µM); shift in MIC on co-treatment with 5 mM MgCl2 (P. aeruginosa PAO1 [3]; P. aeruginosa PAO1): no change in antibacterial activity; MIC (P. aeruginosa PAO1 [3]; PAO1, CLSI (Table 8), read-out: P. aeruginosa PAO1 MIC): 1020 µg/mL (≈ 1980 µM); MIC (P. aeruginosa PAO1 [3]; PAO1, Table 9, read-out: MIC P. aeruginosa PAO1): 1020 µg/mL (≈ 1980 µM); MIC (P. aeruginosa PAO1 [3]; Reference strain PAO1 (Table 11), read-out: MIC): 1020 µg/mL (≈ 1980 µM); MIC (P. aeruginosa PAO1 [3]; WT P. aeruginosa PAO1, MH broth (Table 1), read-out: PAO1 MIC): > 512 µg/mL; MIC P. aeruginosa PAO1, 5 mM MgCl2/CAMH (P. aeruginosa PAO1 [3]; co-treatment 5 mM MgCl2 in CAMH (Table 10)): 1024; PAO1 + PMBN MIC (P. aeruginosa PAO1 [3]; co-treatment of 8 μg/mL of PMBN, MH broth): 4 µg/mL; MIC versus PAO1 (P. aeruginosa PAO1 [3]; text b125, Chart 6): 1024 μg/mLh; activity (MIC) against a panel of 75 clinical isolates of P. aeruginosa [4]: essentially no antibacterial activity; MIC ([4]; AR Bank Isolate # 0054): > 1020 µg/mL; MIC ([4]; AR Bank Isolate # 0064): > 1020 µg/mL; MIC ([4]; AR Bank Isolate # 0090): > 1020 µg/mL; MIC ([4]; AR Bank Isolate # 0092): > 1020 µg/mL; MIC ([4]; AR Bank Isolate # 0095): > 1020 µg/mL; MIC ([4]; AR Bank Isolate # 0100): > 1020 µg/mL; MIC ([4]; AR Bank Isolate # 0103): > 1020 µg/mL; MIC ([4]; AR Bank Isolate # 0110): > 1020 µg/mL; MIC ([4]; AR Bank Isolate # 0229): > 1020 µg/mL; MIC ([4]; AR Bank Isolate # 0230): > 1020 µg/mL; MIC ([4]; AR Bank Isolate # 0231): > 1020 µg/mL; MIC ([4]; AR Bank Isolate # 0232): > 1020 µg/mL; MIC ([4]; AR Bank Isolate # 0233): > 1020 µg/mL; MIC ([4]; AR Bank Isolate # 0234): 1020 µg/mL (≈ 1980 µM); MIC ([4]; AR Bank Isolate # 0235): > 1020 µg/mL; MIC ([4]; AR Bank Isolate # 0236): > 1020 µg/mL; MIC ([4]; AR Bank Isolate # 0237): > 1020 µg/mL; MIC ([4]; AR Bank Isolate # 0239): > 1020 µg/mL; MIC ([4]; AR Bank Isolate # 0240): > 1020 µg/mL; MIC ([4]; AR Bank Isolate # 0241): > 1020 µg/mL; MIC ([4]; AR Bank Isolate # 0242): > 1020 µg/mL; MIC ([4]; AR Bank Isolate # 0243): > 1020 µg/mL; MIC ([4]; AR Bank Isolate # 0244): > 1020 µg/mL; MIC ([4]; AR Bank Isolate # 0245): > 1020 µg/mL; MIC ([4]; AR Bank Isolate # 0246): 1020 µg/mL (≈ 1980 µM); MIC ([4]; AR Bank Isolate # 0248): > 1020 µg/mL; MIC ([4]; AR Bank Isolate # 0250): > 1020 µg/mL; MIC ([4]; AR Bank Isolate # 0252): > 1020 µg/mL; MIC ([4]; AR Bank Isolate # 0254): > 1020 µg/mL; MIC ([4]; AR Bank Isolate # 0265): > 1020 µg/mL; MIC ([4]; AR Bank Isolate # 0763): > 1020 µg/mL; MIC ([4]; AR Bank Isolate # 0767): > 1020 µg/mL; MIC ([4]; AR Bank Isolate # 0769): > 1020 µg/mL; MIC ([4]; AR Bank Isolate # 0772): > 1020 µg/mL; MIC ([4]; Carle Isolate ID # Cl-02): 1020 µg/mL (≈ 1980 µM); MIC ([4]; Carle Isolate ID # Cl-03): 1020 µg/mL (≈ 1980 µM); MIC ([4]; Carle Isolate ID # Cl-04): > 1020 µg/mL; MIC ([4]; Carle Isolate ID # Cl-05): > 1020 µg/mL; MIC ([4]; Carle Isolate ID # Cl-06): > 1020 µg/mL; MIC ([4]; Carle Isolate ID # Cl-07): > 1020 µg/mL; MIC ([4]; Carle Isolate ID # Cl-08): > 1020 µg/mL; MIC ([4]; Carle Isolate ID # Cl-09): > 1020 µg/mL; MIC ([4]; Carle Isolate ID # Cl-10): > 1020 µg/mL; MIC ([4]; Carle Isolate ID # Cl-11): > 1020 µg/mL; MIC ([4]; Carle Isolate ID # Cl-12): > 1020 µg/mL; MIC ([4]; Carle Isolate ID # Cl-13): > 1020 µg/mL; MIC ([4]; Carle Isolate ID # Cl-14): > 1020 µg/mL; MIC ([4]; Carle Isolate ID # Cl-15): > 1020 µg/mL; MIC ([4]; Carle Isolate ID # Cl-19): > 1020 µg/mL; MIC ([4]; Cubist Strain ID # 996): > 1020 µg/mL; MIC ([4]; Cubist Strain ID # 997): > 1020 µg/mL; MIC ([4]; Cubist Strain ID # 998): 1020 µg/mL (≈ 1980 µM); MIC ([4]; Cubist Strain ID # 999): > 1020 µg/mL; MIC ([4]; Cubist Strain ID # 1000): > 1020 µg/mL; MIC ([4]; Cubist Strain ID # 1001): > 1020 µg/mL; MIC ([4]; Cubist Strain ID # 1174): > 1020 µg/mL; MIC ([4]; Cubist Strain ID # 1175): > 1020 µg/mL; MIC ([4]; Cubist Strain ID # 1176): > 1020 µg/mL; MIC ([4]; Cubist Strain ID # 1280): > 1020 µg/mL; MIC ([4]; Cubist Strain ID # 1282): > 1020 µg/mL; MIC ([4]; Cubist Strain ID # 1283): > 1020 µg/mL; MIC ([4]; Cubist Strain ID # 1284): > 1020 µg/mL; MIC ([4]; Cubist Strain ID # 1586): > 1020 µg/mL; MIC ([4]; Cubist Strain ID # 1590): > 1020 µg/mL; MIC ([4]; Cubist Strain ID # 1591): > 1020 µg/mL; MIC ([4]; Cubist Strain ID # 1592): > 1020 µg/mL; MIC ([4]; Cubist Strain ID # 1905): > 1020 µg/mL; MIC ([4]; Cubist Strain ID # 1906): > 1020 µg/mL; MIC ([4]; Cubist Strain ID # 2242): > 1020 µg/mL; MIC ([4]; Cubist Strain ID # 2243): > 1020 µg/mL; MIC ([4]; Cubist Strain ID # 2244): > 1020 µg/mL; MIC ([4]; Other strains (ref.) 1113): > 1020 µg/mL; MIC ([4]; Other strains (ref.) 1727): > 1020 µg/mL
